A short description of this data set: Comparative in vitro release of Oligo-3 and Oligo-4 from gold nanoparticles with glutathione, followed by fluorescence. The conditions noted are these: PBS, glutathione final concentration 1 mM, Ex: 470, Em: 517 nm. Here is the method:
To a solution of modified gold nanoparticles prepared in Example 9 in PBS bearing the Oligo-3 or Oligo-4 was added glutathione (final concentration 1 mM). The in vitro release of the oligonucleotides bearing the fluorescein molecule is followed by fluorescence. The fluorescence was recorded at different periods of time. […] Particularly, in the case of Oligo-3, the fluorescence increases fast due to the release of the oligonucleotide from the gold nanoparticle in the presence of glutathione at 1 mM. The fluorescence is quenched when fluorescein is close to the gold nanoparticle, but it increases over time due to the release of the fluorescent oligonucleotide in the presence of glutathione. […] Ex: 470, Em: 517 nm.

“Oligo-3: TTTTTTTTTT (SEQ ID NO: 3), fluorescein at position 5′ and the modification herein reported at position 3′ (5' fluorescein; 3' modification; Oligonucleotide sequence as in Oligo-3 and Oligo-4)”: the “in vitro release of the fluorescein oligonucleotide from gold nanoparticles” value was “release takes place efficiently”.
“Oligo-4: TTTTTTTTTT (SEQ ID NO: 3), fluorescein at 5′, dithiolane group at 3′ but not the disulfide group; comparative (5' fluorescein; 3' dithiolane; Oligonucleotide sequence as in Oligo-3 and Oligo-4)”: the “in vitro release of the fluorescein oligonucleotide from gold nanoparticles” value was “inefficient release”.

The values are drawn from patent publication US20160075680A1, “MODIFIED SOLID SUPPORT FOR THE SYNTHESIS OF OLIGONUCLEOTIDES” (FUNDACIÓN IMDEA NANOCIENCIA, priority 2013, published 2016).
